Values of other authors as cited in patent US10842882B2, “Amatoxin-antibody conjugates” ([…] GMBH, priority 2015, dated 2020).

Target: RNA-polymerase II (Homo sapiens, UniProt P24928)
Conditions: amanitin/RNA-polymerase II complex, background statement

For amanitin, which Kd is on record?
The Kd was 3 nM.
